Experimental data: patent US8377870B2, “Antimicrobial aqueous solution and its preparation method” (Dentrochemical Co., Ltd., priority 2008, dated 2013)

Legend:
Pseudomonas = experiment: successive 2-fold dilution in test tubes, visual observation of growth of bacteria; assay type: cell-based; set-up: key to growth of bacteria, Dilution rate 0 / growth of bacteria, Dilution rate ×2 / growth of bacteria, Dilution rate ×4: visually observing a growth of bacteria, and the observation result is shown by marks of + and −; visually observing a growth of bacteria, and the observation result is shown by marks of + and −
Protocol: Further, successive 2-fold dilutions […] media of ½ concentration; 5 ml of the applicable diluted solution at each fold was separately poured into dual test tubes, for preparation; while simultaneously preparing diluted solutions of ε-polylysine only in test tubes as a comparative test, in the same manner as the above; and one droplet of an inoculum of Pseudomonas was inoculated into each diluted solution, followed by shaking and culturing at 37° C. for 18 hours. Judgment of each activity was conducted by visually observing a growth of bacteria, and the observation result is shown by marks of + and −.

[1] = test system: Pseudomonas aeruginosa, JCM 5961; experiment: growth curve of Pseudomonas by optical density measuring method, liquid culture (½ TS medium); assay type: cell-based
Protocol: 100 mg of a sucrose monolaurate (Ryoto Sugar Ester L1695 produced by Mitsubishi-Kagaku Foods Corporation) was dissolved in 1 liter of a sterilized deionized water, the resultant solution was heated to 50° C., 50 mg of monolaurin (Taiyo Kagaku Co., Ltd.) was added thereinto followed by stirring, the dissolution thereof was then confirmed, and the resultant solution was subsequently cooled down to a room temperature. Added into the solution was 50 mg of an ε-polylysine product (50% dextrin powder produced by Chisso Corporation; containing 50% of ε-polylysine bromate and 50% of dextrin), followed by dissolution thereof, to obtain an antimicrobial aqueous solution. This antimicrobial aqueous solution contained 25 μg/ml of the ε-polylysine, 50 μg/ml of the monolaurin, and 100 μg/ml of the sucrose monolaurate. Here, used as the monolaurin was that recrystallized by means of hexane, because a monolaurin of high purity was required. […]

[2] = acute toxicity; cited from earlier work
bacteria and fungi = experiment: growth of bacteria and fungi with diluted ε-polylysine by itself; assay type: cell-based; details: ε-polylysine by itself diluted down to about 6.25 μg/ml
[3] = 37° C. for 18 hours, start: ε-polylysine only 50 μg/ml, or ε-polylysine 8 μg/ml (fix) + diglycerol monolaurate 50 μg/ml

Q: For ε-polylysine, which “growth of bacteria, Dilution rate 0” value (Pseudomonas; [3]) is on record?
A: −

Q: And the “growth of bacteria, Dilution rate ×2” value (Pseudomonas; [3])?
A: −

Q: And the “growth of bacteria, Dilution rate ×4” value (Pseudomonas; [3])?
A: −

Q: And the “dilutions in which growth of bacteria was found” value (Pseudomonas; ε-polylysine only, start 50 μg/ml, successive 2-fold dilution)?
A: ≥ 8 fold

Q: And the “growth of bacteria (growth curve, FIG. 2)” value ([1]; 10 μg/ml of each component named in the sample code, compared with control without additive)?
A: growth of bacteria to the similar level as a control

Q: And the “lapse of time after which growth of bacteria set in (growth curve, FIG. 1)” value ([1]; sample codes give μg/ml (M monolaurin, PL ε-polylysine, S sucrose monolaurate))?
A: 12 h

Q: What about the LD50 [2] of the same substance?
A: > 10000 mg/kg

Q: What about the “effect on growth of bacteria and fungi” value (bacteria and fungi) of the same substance?
A: promote growth of bacteria and fungi
